In one series the target is T1, CYP1A2 (Homo sapiens, UniProt P05177).
T1 construct: purchased Gentest
T1 sequence (P05177 1-516): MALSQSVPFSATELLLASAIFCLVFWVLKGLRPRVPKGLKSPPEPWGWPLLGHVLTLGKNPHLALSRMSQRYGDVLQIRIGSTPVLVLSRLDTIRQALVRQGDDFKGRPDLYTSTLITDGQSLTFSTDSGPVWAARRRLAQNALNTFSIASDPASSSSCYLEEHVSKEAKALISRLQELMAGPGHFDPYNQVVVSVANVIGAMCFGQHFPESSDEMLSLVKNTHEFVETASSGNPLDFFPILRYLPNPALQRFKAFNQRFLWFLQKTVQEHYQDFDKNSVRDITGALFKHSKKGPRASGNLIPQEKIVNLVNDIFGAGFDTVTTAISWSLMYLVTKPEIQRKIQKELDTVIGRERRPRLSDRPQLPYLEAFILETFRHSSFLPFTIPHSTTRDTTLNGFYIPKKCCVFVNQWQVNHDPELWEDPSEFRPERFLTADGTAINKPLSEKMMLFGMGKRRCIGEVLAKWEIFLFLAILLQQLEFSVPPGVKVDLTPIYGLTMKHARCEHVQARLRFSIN
Kind of series: Cytochrome P450 assay (Gentest Kit), CYP1A2. The series is classed as in vitro ADME. The conditions noted are these: human recombinant isoenzyme. Here is the method:
(§1) Inhibition of the five most important Cytochrome P450 isoforms (CYP1A2, CYP2C9, CYP2C19, CYP2D6 and CYP3A4), involved in drug metabolism, was measured using specific substrates that become fluorescent upon CYP metabolism (Gentest Kit assay).
(§2) Compounds were tested in a 96-well plate containing incubation/NADPH regenerating buffer. Specific human recombinant isoenzymes and substrates were added and incubated at 37° C. for 15 minutes for CYP1A2/CEC, […], 45 minutes for CYP2C9/MFC and 30 minutes for the others CYP450.
(§3) The specific substrates were the following: 3-cyano-7-ethoxycoumarin (CYP2C19 and CYP1A2),

The next series concerns the target HERG channel (Homo sapiens, UniProt Q12809). Kind of series: HERG current in transfected CHO cell lines.
Another series concerns the target T2, CYP2D6 (Homo sapiens, UniProt P10635).
T2 construct: purchased Gentest
Kind of series: Cytochrome P450 assay (Gentest Kit), CYP2D6. The series is classed as in vitro ADME. The note with it: human recombinant isoenzyme. Here is the method: as §1, §2
3[2(N,N-diethyl-N-mwthylamino) ethyl]-7-methoxy-4-methylcoumarin (CYP2D6)

The next series concerns the target T3, CYP2C9 (Homo sapiens, UniProt P11712).
T3 construct: purchased Gentest
Kind of series: Cytochrome P450 assay (Gentest Kit), CYP2C9. The series is classed as in vitro ADME. The note with it: human recombinant isoenzyme. Here is the method: as §1, §2
7-methoxy-4-trifluoromethylcoumarin (CYP2C9),

Another series addresses T4, CYP2C19 (Homo sapiens, UniProt P33261).
T4 construct: purchased Gentest
Kind of series: Cytochrome P450 assay (Gentest Kit), CYP2C19. The series is classed as in vitro ADME. The note with it: human recombinant isoenzyme. Here is the method: as §1, §2, §3

Series [1] can be described thus: Cytotoxicity assay in human neuroblastoma cell line SH-SY-5Y. In kind it is cell-based. The conditions noted are these: SH-SY-5Y neuroblastoma cells, 24 hours incubation, Alamar Blue, concentration inducing 50% of mortality. Here is the method: Cytotoxicity Assay in Human Neuroblastoma Cell Line SH-SY-5Y
At time zero, the cells were seeded at 1.10^4/cm^2 in 96 well plates in DMEM growth medium+10% heat inactivated FBS+2 mM 1-Glutamine+100 U/mL-100 μg/mL Penicillin/Streptomycin.
After 72 hours at subconfluent phase of growth, the medium was removed and cells were incubated for 24 hours at 37° C. in 180 μl of neurobasal medium+2 mM 1-Glutamine (Life Technologies) with or without test compounds (20 μl, at least 5 concentrations in triplicate).
At the end of incubation, 20 μl of Alamar Blue dye (AlamarBlue™ Assay Kit, Promega) were directly added to the cell medium.
Four hours after, the cytotoxicity was assessed by measuring the fluorescence at 530 nm excitation and 595 nm emission using Tecan Spectrafluor plate reader.
Before and at the end of the treatment, the cultures were monitored microscopically by an Olympus IX70 inverted light microscope matched to an Image Analyzer (Image Pro Plus, 5.1) to evaluate the cellular morphology.
Results are expressed in Table 1 as concentration inducing 50% of mortality.
Background: The colour change of resazurin is a common sign of viable cells or microbes.

The test system of series [2] is mice. Kind of series: Maximal Electroshock Test (MES) in mice. In kind it is in vivo. Here is the method: Maximal Electroshock Test (MES) in Mice
The maximal electroshock test (MES) is used commonly in the screening of anti-epileptic drugs in rodent models.
Animals and Apparatus: Male CD1 mice weighing 25 g were used. […] The stimulus was delivered intra-aurally through clip electrodes in mice (0.7 seconds of a 40 mA shock, with a pulse train of 80 Hz having a pulse duration of 0.4 ms). The acute effect of compounds administered intraperitoneally or orally 15-60 minutes before MES induction were examined and compared with a vehicle control group. Ten mice were studied per group. Complete suppression of the hindlimb tonic extensor component of seizures was taken as evidence of anticonvulsant activity.
The compounds of the invention were administered orally or intraperitoneally at the doses of 3-30 mg/kg.
The results are expressed in Tables 3 and 4 as % of protection.
(The maximal electroshock test induces tonic seizures with an electrical stimulus.)

The next series concerns the target T5, CYP3A4 (Homo sapiens, UniProt P08684).
T5 construct: purchased Gentest
Kind of series: Cytochrome P450 assay (Gentest Kit), CYP3A4. The series is classed as in vitro ADME. The conditions noted are these: human recombinant isoenzyme, Table 1. Here is the method: as §1, §2
benzylphenylcoumarin (CYP3A4)

Series [3] concerns mice. Kind of series: Amphetamine plus chlordiazepoxide-induced hyperlocomotion in mice. In kind it is in vivo. Here is the method:
FIG. 1 provides total locomotor activity over 30 min. Mice were treated with ralfinamide (10; 30 and 60 mg/kg, po); or saline and returned to their home cage. After 30 min they received an injection of Amph (2.5 mg/kg; ip); Amph/CDP mixture (2.5 and 3.125 mg/kg; ip) or saline immediately prior to be placed in the test cage. Locomotor activity was recorded for 30 min.
Amphetamine Plus Chlordiazepoxide-Induced Hyperlocomotion in Mice
The anti mania activity, predictive of efficacy in bipolar disorders, was measured using the “Amphetamine plus chlordiazepoxide-induced hyperlocomotion in mice” model according to the following procedure.
In this model, mice are treated with a mixture of d-amphetamine plus an anxiolytic dose of the benzodiazepine, chlordiazepoxide (Rushton R and Steinberg H. Nature 1966; 211: 1312-3; R. Arban, et al. Behavioural Brain Research, 158: 123-132). The model has been claimed to mimic some aspects of mania in bipolar disorder. Importantly, the hyperactivity induced by the mixture of d-amphetamine and chlordiazepoxide could be prevented by prior administration of the established mood stabilizer, lithium, as well as other mood stabilizers drugs (e.g. magnesium valproate and carbamazepine). Therefore, this model has face and predictive validity as a model of bipolar disorders and represents a valuable tool to determine, if a test compound could be a potential mood stabilizer drug candidate.
D-amphetamine (Amph) (2.5 mg/kg ip) plus chlordiazepoxide hydrochloride (CDP) (3 mg/kg ip) were administered to male Albino Swiss mice (25-32 g) in a volume of 10 ml/kg. The locomotor activity was recorded using an automated Activity Cage LE 881 (Panlab) (45×45 cm). This system detects animal movements from 2 levels of 4 side infrared sensors placed all around the square cage. Mice were pretreated with the test compound (0.5-60 mg/kg po) and 30 min later, with Amph (2.5 mg/kg ip) or Amph jointly with CDP (3 mg/kg ip) and were placed individually in the motor activity cages. The locomotor activity was measured in terms of total distance travelled (cm) over a period of 30 min. Each group consisted of 8-10 mice.
Statistical analysis: a two-way analysis of variance (ANOVA) with Amph treatment factor and drug treatment factor was performed. Bonferroni's procedure was used for multiple comparison post hoc analysis.
D-amphetamine-chlordiazepoxide administration induced a significant increase in locomotor activity.

HERG channel, sequence (Q12809 whole entry): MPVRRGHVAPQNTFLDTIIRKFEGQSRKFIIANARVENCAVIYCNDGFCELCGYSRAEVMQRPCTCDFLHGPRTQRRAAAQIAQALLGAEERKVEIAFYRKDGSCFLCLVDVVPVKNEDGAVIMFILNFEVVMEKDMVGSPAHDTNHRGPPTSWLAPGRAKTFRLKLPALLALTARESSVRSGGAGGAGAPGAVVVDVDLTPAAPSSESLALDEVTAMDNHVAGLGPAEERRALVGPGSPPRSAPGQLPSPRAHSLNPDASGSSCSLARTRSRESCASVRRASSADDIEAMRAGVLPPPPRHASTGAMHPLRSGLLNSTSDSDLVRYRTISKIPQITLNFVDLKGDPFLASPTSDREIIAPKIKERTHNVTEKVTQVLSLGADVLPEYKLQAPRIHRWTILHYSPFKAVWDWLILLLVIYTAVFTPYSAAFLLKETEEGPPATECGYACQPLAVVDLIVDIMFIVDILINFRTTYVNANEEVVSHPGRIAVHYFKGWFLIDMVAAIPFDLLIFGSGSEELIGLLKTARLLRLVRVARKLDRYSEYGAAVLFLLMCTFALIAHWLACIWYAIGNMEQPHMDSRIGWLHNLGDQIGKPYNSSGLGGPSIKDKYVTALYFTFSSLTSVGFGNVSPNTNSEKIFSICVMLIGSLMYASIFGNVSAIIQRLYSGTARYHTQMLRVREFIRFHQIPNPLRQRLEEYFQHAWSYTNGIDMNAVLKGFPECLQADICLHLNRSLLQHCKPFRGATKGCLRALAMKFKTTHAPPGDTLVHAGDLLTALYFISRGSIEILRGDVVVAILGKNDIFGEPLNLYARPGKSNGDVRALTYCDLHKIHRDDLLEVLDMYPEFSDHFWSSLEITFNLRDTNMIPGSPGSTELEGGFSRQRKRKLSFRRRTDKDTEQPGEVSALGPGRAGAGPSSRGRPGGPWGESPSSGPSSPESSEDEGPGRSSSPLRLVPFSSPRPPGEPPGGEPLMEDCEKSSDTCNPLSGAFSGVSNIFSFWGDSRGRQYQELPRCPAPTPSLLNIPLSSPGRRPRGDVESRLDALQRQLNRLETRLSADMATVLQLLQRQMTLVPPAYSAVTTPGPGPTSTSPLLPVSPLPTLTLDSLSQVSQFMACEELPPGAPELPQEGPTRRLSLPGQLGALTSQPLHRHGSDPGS
T2 sequence (P10635 whole entry): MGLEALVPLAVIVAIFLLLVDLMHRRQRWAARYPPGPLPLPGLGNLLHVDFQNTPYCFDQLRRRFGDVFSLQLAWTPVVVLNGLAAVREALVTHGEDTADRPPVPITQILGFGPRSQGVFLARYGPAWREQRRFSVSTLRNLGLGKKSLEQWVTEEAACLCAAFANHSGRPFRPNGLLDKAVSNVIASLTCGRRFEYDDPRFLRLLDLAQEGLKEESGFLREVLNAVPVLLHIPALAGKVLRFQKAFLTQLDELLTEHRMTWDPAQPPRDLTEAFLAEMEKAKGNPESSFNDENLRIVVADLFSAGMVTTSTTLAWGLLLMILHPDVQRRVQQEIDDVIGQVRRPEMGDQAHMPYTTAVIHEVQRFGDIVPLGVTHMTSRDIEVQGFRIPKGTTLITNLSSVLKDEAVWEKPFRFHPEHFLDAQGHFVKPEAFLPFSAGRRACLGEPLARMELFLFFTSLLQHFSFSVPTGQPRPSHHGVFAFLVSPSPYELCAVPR
T3 sequence (P11712 whole entry): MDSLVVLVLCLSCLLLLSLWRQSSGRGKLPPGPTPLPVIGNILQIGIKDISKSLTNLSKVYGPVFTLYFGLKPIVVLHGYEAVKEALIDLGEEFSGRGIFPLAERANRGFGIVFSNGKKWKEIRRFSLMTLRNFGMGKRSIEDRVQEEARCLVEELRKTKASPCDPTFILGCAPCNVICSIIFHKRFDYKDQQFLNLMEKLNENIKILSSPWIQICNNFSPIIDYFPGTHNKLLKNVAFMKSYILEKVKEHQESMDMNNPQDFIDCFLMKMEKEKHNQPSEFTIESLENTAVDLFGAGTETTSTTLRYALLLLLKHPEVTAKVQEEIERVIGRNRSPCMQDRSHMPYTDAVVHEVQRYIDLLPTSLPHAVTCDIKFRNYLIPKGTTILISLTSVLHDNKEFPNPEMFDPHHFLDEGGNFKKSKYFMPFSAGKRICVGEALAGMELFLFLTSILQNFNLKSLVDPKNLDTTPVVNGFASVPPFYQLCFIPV
T4 sequence (P33261 whole entry): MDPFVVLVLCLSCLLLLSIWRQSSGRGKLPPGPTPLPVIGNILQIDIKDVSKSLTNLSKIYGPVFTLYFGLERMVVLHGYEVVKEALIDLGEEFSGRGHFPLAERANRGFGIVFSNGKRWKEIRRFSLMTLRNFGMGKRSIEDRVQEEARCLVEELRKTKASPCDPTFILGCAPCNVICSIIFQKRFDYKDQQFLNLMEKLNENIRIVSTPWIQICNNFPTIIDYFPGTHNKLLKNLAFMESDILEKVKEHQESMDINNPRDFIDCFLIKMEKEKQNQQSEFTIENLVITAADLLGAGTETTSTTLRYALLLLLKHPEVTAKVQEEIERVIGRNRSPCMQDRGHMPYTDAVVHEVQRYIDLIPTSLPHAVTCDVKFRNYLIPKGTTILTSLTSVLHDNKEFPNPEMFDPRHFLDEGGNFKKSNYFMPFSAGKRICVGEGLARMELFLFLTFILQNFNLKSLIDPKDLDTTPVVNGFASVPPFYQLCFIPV
T5 sequence (P08684 whole entry): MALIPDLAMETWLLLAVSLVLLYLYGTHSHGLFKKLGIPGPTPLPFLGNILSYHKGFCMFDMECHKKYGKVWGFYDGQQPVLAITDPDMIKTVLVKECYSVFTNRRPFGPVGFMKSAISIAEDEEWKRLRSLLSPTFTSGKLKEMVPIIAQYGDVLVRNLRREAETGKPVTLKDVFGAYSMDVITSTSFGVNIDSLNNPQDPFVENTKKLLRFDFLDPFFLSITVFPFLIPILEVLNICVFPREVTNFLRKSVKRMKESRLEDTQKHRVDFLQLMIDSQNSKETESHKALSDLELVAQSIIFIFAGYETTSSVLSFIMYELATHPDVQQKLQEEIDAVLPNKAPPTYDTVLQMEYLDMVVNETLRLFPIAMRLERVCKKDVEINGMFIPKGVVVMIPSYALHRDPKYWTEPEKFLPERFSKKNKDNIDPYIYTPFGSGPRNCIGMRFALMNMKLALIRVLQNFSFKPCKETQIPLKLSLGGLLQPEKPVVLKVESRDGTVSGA
Method for HERG channel: The inhibition of HERG current was tested in CHO cells stably expressing recombinant HERG channel.
To evaluate the effect of the test compounds on HERG currents, cells were clamped at −80 Mv, depolarised to 0 mV for 5 seconds allowing activation of HERG current and repolarised to −50 mV during 5 seconds allowing HERG tail current to deactivate. This procedure was repeated at a frequency of 0.06 Hz. The current amplitude upon repolarisation (HERG tail current) was measured before and after exposure to the test compound.
Inhibition of current was calculated as the difference between the amplitude of HERG tail current amplitude measured at the end of external bath perfusion period and HERG tail current measured at the end of test compound perfusion period (when steady-state effect is reached) divided by control HERG tail current.
Drug concentration-inhibition curves were obtained by plotting tonic blocks versus drug concentrations. Dose-response curves were fitted to the tonic block data, according to the logistic equation: y=A2+(A1−A2)/[1+(x/IC50)^p].

As for `C[C@H](NCc1ccc(OCc2cccc(F)c2)c(Cc2cccc(F)c2)c1)C(N)=O` [Impurity IIc, (S)-2-[3-(3-fluorobenzyl)-4-(3-fluorobenzyloxy)-benzylamino]propanamide methanesulfonate], the IC50 (commonly the concentration that gives 50% inhibition) was greater than 40 µM at CYP1A2; 1.2 µM against HERG channel; 0.77 µM on CYP2D6; 7.29 µM on CYP2C9; 0.42 µM at CYP2C19; 0.05 µM at CYP3A4. The compound also yielded an IC50 at 24 h in series [1] of 6.7 µM. Besides, the MES % protection in the series with mice [2] (mice, 3 mg/kg ip) worked out at 0%; with mice [2] (mice, 10 mg/kg ip), 0%; with mice [2] (mice, 30 mg/kg ip), 0%. In addition, the MES dead/live with mice [2] (mice, 3 mg/kg ip) is listed as 5/10; with mice [2] (mice, 10 mg/kg ip), 4/10; in the series with mice [2] (mice, 30 mg/kg ip) it was 4/10. In the series on mice [2] (mice, ip, from 3 mg/kg), the “pharmacological activity, i.e. protection from convulsions, in MES test” value is listed as “without any pharmacological activity”. Also, the “mortality in the mice MES test” value in the series with mice [2] (starting from 3 mg/kg ip) is given as “increases”.

Take `C[C@H](NCc1ccc(OCc2ccccc2F)c(Cc2ccccc2F)c1)C(N)=O` [Impurity IId, (S)-2-[3-(2-fluorobenzyl)-4-(2-fluorobenzyloxy)-benzylamino]propanamide methanesulfonate]: the IC50 is greater than 40 µM on CYP1A2; 2.66 µM against HERG channel; 0.92 µM at CYP2D6; 8.01 µM on CYP2C9; 1.89 µM on CYP2C19; 0.05 µM on CYP3A4. Half-maximal inhibition in series [1] (IC50 at 24 h) was put at 15 µM. The “MES Protection %” value in the series with mice [2] (mice, 10 mg/kg p.o.) is on record as 0%. The “MES dead/live” value is recorded as 0/10 in the series on mice [2] (mice, 10 mg/kg p.o.) and 0/10 with mice [2] (mice, 20 mg/kg p.o.). Also, the “MES (head blank; protection)” value in the series on mice [2] (mice, 20 mg/kg p.o.) was 0%. Moreover, the “protection from convulsions in MES test” value in the series with mice [2] (mice, p.o. at 10 and 20 mg/kg) is given as “doesn't protect”.

Consider `CS(=O)(=O)O.C[C@H](NCc1ccc(OCc2ccccc2F)cc1)C(N)=O` [Ralfinamide methanesulfonate, (S)-2-[4-(2-fluorobenzyloxy)benzylamino]propanamide methanesulfonate], for which the IC50 on CYP1A2 was greater than 40 µM; at HERG channel, 18 µM; at CYP2D6, greater than 40 µM; on CYP2C9, greater than 40 µM; on CYP2C19 it was greater than 40 µM. For the same compound, the IC50 at 24 h in [1] was greater than 300 µM. Moreover, the “MES Protection %” value with mice [2] (mice, 10 mg/kg p.o.) amounted to 60%. In addition, in the series on mice [2] (mice, 20 mg/kg p.o.), the “MES (head blank; protection)” value is recorded as 90%.

Take `CS(=O)(=O)O.C[C@H](NCc1ccc(OCc2cccc(F)c2)cc1)C(N)=O` [Safinamide methanesulfonate, (S)-2-[4-(3-fluorobenzyloxy)benzylamino]propanamide methanesulfonate]: the IC50 is greater than 40 µM at CYP1A2; 27 µM at HERG channel; greater than 40 µM at CYP2D6; greater than 40 µM on CYP2C9; 23.9 µM on CYP2C19. In series [1], this compound displayed an IC50 at 24 h of 248 µM. The MES % protection in the series on mice [2] (mice, 3 mg/kg ip) is recorded as 50%; in the series with mice [2] (mice, 10 mg/kg ip), 100%; with mice [2] (mice, 30 mg/kg ip), 100%.

On to `C[C@H](NCc1ccc(OCc2ccccc2F)cc1)C(N)=O` [ralfinamide, (S)-2-[4-(2-fluorobenzyloxy)-benzylamino]propanamide], for which the “total locomotor activity over 30 min, Bonferroni versus Amph/CDP mixture” value in the series with mice [3] (30 mg/kg po) was “statistical difference”. For the same compound, in the series on mice [3] (60 mg/kg po), the “total locomotor activity over 30 min, Bonferroni versus Amph alone” value was “statistical difference” and the “total locomotor activity over 30 min, Bonferroni versus Amph/CDP mixture” value is recorded as “statistical difference”. In the series on mice [3] (orally administered, 30 min before Amph/CDP ip), the “hyperactivity induced by Amph/CDP mixture (locomotor activity)” value was “significantly decreasing the hyperactivity”.

The values are drawn from US8278485B2, “Process for the production of 2-[4-(3- and 2-fluorobenzyloxy) benzylamino] propanamides” (Newron Pharmaceuticals S.p.A., priority 2006, dated 2012).
